From ChEMBL document CHEMBL5390315, “Targeted Protein Degradation of Histone Deacetylases by Hydrophobically Tagged Inhibitors” (ACS Med Chem Lett, 2023) come the findings set out here.

Molecules are shown by their SMILES. Activity calls are given as the source filed them. The calls are words filed in the database; no cut-off is given here.

Assay [1] deals with MM1.S. The experiment in a line: cells. Particulars: Homo sapiens, 72 h. In kind it is functional, cell-based.
Description: Antiproliferative activity against human MM.1S cells assessed as inhibition of cell growth incubated for 72 hrs by microplate photometer analysis
The test system of assay [2] is MM1.S. The assay is described as follows: Antiproliferative activity against human MM.1S cells assessed as inhibition of cell growth at upto 100 uM incubated for 72 hrs by microplate photometer analysis. The assay is classed as functional, cell-based.
Assay [3] has as its target T1, Protein deacetylase HDAC6 (Homo sapiens) (UniProt Q9UBN7).
T1 sequence (whole entry): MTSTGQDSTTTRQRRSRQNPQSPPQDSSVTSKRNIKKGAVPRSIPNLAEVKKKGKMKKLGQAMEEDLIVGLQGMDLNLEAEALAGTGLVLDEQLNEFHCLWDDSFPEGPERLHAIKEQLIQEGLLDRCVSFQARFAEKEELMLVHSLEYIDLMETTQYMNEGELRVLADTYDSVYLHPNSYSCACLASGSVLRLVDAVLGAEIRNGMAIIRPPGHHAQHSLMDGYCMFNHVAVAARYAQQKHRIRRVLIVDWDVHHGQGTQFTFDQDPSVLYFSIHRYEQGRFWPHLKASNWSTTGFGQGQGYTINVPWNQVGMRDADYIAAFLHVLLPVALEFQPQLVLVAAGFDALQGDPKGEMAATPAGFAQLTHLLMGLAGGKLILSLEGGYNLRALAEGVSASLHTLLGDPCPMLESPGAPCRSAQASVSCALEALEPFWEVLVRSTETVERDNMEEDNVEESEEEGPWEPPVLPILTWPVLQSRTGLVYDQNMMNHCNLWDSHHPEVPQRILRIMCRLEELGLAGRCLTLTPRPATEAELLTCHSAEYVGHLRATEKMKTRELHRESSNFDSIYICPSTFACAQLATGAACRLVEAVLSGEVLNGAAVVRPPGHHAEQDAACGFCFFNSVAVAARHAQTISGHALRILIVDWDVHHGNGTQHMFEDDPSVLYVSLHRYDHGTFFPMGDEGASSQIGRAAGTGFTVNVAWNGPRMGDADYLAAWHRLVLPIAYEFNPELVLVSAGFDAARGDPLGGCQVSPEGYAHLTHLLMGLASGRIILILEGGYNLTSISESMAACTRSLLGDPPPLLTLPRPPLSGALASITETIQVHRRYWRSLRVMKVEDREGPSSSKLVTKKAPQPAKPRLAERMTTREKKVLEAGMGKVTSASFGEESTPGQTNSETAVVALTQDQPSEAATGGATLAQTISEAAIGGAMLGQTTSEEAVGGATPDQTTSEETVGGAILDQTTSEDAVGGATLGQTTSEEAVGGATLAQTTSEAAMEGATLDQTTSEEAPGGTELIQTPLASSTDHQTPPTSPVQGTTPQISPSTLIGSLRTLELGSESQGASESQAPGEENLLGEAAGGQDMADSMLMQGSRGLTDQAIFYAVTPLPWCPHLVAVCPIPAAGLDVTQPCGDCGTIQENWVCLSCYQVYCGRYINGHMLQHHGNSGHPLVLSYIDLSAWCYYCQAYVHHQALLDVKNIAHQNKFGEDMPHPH
The experiment in a line: Induction of HDAC6 degradation in human MM1.S cells at 20 uM incubated for 24 hrs by immunoblot analysis. In kind it is cell-based.

In assay [4] the target is Histone deacetylase 4 (Homo sapiens) (UniProt P56524). The assay is described as follows: Inhibition of N-terminal GST/C-terminal His-tagged human recombinant HDAC4 (627 to 1084 residues) expressed in baculovirus expression system using Boc-Lys(Tfa)-AMC as fluorogenic substrate at 10 uM incubated for 90 min followed by trypsin addition and measured after 30 min by microplate reader analysis. Particulars: time 120.0 min.
Histone deacetylase 4 (Homo sapiens), sequence (P56524 whole entry, the tested form may be a part): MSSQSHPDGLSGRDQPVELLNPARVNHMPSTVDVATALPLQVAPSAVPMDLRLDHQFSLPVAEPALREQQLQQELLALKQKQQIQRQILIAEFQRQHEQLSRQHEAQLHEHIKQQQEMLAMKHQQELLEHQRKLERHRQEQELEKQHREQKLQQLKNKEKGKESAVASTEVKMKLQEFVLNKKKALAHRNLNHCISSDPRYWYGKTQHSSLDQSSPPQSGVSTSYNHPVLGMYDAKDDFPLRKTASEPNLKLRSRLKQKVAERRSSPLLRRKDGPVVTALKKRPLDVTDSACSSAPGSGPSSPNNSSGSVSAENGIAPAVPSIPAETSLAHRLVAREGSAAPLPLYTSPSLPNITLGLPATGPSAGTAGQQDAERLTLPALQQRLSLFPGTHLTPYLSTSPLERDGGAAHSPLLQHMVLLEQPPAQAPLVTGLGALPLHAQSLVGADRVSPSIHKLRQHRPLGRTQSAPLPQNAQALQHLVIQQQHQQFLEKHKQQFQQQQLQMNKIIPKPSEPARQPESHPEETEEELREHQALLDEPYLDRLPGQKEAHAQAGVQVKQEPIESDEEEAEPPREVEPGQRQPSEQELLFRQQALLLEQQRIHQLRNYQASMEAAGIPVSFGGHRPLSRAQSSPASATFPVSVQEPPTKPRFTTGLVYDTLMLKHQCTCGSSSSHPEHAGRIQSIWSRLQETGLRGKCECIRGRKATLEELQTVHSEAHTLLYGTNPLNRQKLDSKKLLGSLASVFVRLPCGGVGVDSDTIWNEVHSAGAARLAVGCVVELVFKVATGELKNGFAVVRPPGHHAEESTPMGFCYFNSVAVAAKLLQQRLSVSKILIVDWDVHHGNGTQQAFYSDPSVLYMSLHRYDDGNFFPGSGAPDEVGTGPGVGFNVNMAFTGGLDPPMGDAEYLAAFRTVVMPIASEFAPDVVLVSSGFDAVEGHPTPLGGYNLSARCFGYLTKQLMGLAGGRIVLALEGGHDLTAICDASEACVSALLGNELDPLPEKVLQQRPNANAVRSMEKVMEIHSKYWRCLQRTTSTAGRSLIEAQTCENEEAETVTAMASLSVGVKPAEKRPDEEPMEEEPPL

Assay [5] addresses T2, Histone deacetylase 2 (Homo sapiens, UniProt Q92769).
Description: Inhibition of C-terminal flag tagged human recombinant full length HDAC2 (1 to 488 residues) using Z- Lys(Ac)-AMC as fluorogenic substrate incubated for 90 mins followed by trypsin addition and measured after 30 min by microplate reader analysis
Assay [6] addresses T3, Histone deacetylase 1 (Homo sapiens, UniProt Q13547). The assay is described as follows: Inhibition of C-terminal 6His tagged human recombinant full length HDAC1 (1 to 482 residues) using Z- Lys(Ac)-AMC as fluorogenic substrate incubated for 90 mins followed by trypsin addition and measured after 30 min by microplate reader analysis.
Assay [7] deals with MM1.S. The experiment in a line: Induction of apoptosis in human MM1.S cells assessed as late apoptosis at 20 uM incubated for 48 hrs by Annexin V-FITC/PI staining based flow cytometry. The assay is classed as functional, cell-based.
Assay [8] deals with MM1.S. The experiment in a line: Induction of apoptosis in human MM1.S cells assessed as early apoptosis at 20 uM incubated for 48 hrs by Annexin V-FITC/PI staining based flow cytometry. In kind it is functional, cell-based.
Assay [9] has as its target T3, Histone deacetylase 1. The experiment in a line: Induction of HDAC1 degradation in human MM1.S cells at 20 uM incubated for 24 hrs by immunoblot analysis. In kind it is cell-based.
Assay [10] concerns the target T3, Histone deacetylase 1. The assay is described as follows: Induction of HDAC1 degradation in human MM1.S cells incubated for 24 hrs by immunoblot analysis. The assay is classed as cell-based.
Assay [11] addresses T4, Protein deacetylase HDAC6 (Homo sapiens, UniProt Q9UBN7).
T4 sequence (Q9UBN7 whole entry): T1 sequence (whole entry)
The assay is described as follows: Inhibition of C-terminal GST tagged human recombinant full length HDAC6 (1 to 1215 residues) using Z- Lys(Ac)-AMC as fluorogenic substrate incubated for 90 mins followed by trypsin addition and measured after 30 min by microplate reader analysis.

Assay [12] deals with Histone deacetylase 4 (Homo sapiens) (UniProt P56524). The assay is described as follows: Induction of HDAC4 degradation in human MM1.S cells at 20 uM incubated for 24 hrs by immunoblot analysis. In kind it is cell-based.
For the next assay, the target named is Histone deacetylase. The assay is described as follows: Inhibition of human recombinant HDAC in human MM.1S cells using Boc-Lys(Epsilon-Ac)-AMC as substrate preincubated for 18 hrs followed by substrate addition and measured after 3 hrs by microplate reader analysis. In kind it is cell-based. The conditions noted are these: mm1.s.
In assay [13] the target is T2, Histone deacetylase 2. The experiment in a line: Induction of HDAC2 degradation in human MM1.S cells at 20 uM incubated for 24 hrs by immunoblot analysis. In kind it is cell-based.
In assay [14] the target is T3, Histone deacetylase 1. The experiment in a line: Induction of HDAC1 degradation in human MM1.S cells at 20 uM incubated for 24 hrs in the presence of MG132 by immunoblot analysis. The assay is classed as cell-based.

T3 sequence (Q13547 whole entry, the tested form may be a part): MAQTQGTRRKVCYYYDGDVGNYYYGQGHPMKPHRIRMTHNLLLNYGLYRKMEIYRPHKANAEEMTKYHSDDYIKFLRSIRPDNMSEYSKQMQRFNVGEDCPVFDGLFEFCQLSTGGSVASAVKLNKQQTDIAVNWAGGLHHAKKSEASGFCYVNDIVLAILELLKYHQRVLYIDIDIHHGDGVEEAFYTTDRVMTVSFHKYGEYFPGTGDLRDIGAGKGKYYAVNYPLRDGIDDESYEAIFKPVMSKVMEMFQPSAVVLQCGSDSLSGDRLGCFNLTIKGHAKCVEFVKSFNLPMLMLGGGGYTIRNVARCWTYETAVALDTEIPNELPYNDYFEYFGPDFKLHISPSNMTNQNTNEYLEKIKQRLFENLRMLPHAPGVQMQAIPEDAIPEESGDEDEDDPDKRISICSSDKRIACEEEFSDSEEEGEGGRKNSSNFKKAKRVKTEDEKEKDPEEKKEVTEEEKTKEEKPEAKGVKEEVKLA
T2 sequence (Q92769 whole entry, the tested form may be a part): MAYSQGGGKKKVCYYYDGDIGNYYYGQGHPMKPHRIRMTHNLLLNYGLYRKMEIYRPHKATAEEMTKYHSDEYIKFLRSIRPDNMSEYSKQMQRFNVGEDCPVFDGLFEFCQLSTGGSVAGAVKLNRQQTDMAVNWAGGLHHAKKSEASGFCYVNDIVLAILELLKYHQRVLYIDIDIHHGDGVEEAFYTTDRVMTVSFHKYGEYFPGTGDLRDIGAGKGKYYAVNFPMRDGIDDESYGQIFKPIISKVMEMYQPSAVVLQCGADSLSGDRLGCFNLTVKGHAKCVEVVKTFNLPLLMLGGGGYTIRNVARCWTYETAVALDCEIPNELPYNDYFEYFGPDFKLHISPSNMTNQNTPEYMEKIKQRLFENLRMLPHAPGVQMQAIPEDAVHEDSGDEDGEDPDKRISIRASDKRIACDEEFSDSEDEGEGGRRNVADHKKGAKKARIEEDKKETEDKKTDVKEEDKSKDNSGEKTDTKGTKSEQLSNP

`O=C(CCCCCCNC(=O)c1ccc(NC(=O)CCCNC(=O)CC23C[C@H]4C[C@@H](C2)C[C@@H](C3)C4)cc1)NO`: the midpoint of inhibition in the assay on MM1.S [1], the IC50, lay at 23.8 µM.

Take `O=C(CCCCCCNC(=O)c1ccc(NC(=O)CCCCCNC(=O)CC2c3ccccc3-c3ccccc32)cc1)NO`: the outcome in the assay on MM1.S [2] was inactive.

Regarding `O=C(CCCCCCNC(=O)c1ccc(NC(=O)CNC(=O)CC2c3ccccc3-c3ccccc32)cc1)NO`, the outcome in [3] and in assay [12] was inactive. The inhibition entry in [4] is “inactive”. Besides, the IC50 at Histone deacetylase 2 [5] was 157 nM; at Histone deacetylase 1 [6] it was 86.4 nM; with MM1.S [1], 11.6 µM; in [11], 3.3 nM; at Histone deacetylase, 0.54 µM. The result in the assay with MM1.S [7], with MM1.S [8] and on Histone deacetylase 1 [9] was Active. In addition, the Emax at Histone deacetylase 1 [10] was 47%.

On to `O=C(CCCCCCNC(=O)c1ccc(OCc2cn(CCCCCCOCCOCCNC(=O)CC34C[C@H]5C[C@@H](C3)C[C@@H](C4)C5)nn2)cc1)NO`, for which the IC50 in the assay on MM1.S [1] stood at 48.8 µM.

Regarding `O=C(CC12C[C@H]3C[C@@H](C1)C[C@@H](C2)C3)NCCOCCOCCCCCCn1cc(COc2ccc(C(=O)NCc3ccc(C(=O)NO)cc3)cc2)nn1`, the result in the assay on MM1.S [2] was inactive.

Regarding `O=C(CC12C[C@H]3C[C@@H](C1)C[C@@H](C2)C3)NCCOCCOCCCCCCn1cc(-c2ccc(C(=O)NCc3ccc(C(=O)NO)cc3)cc2)nn1`, in the assay with MM1.S [2], the outcome was inactive.

As to `O=C(CCCCCCNC(=O)c1ccc(NC(=O)CNC(=O)CC23C[C@H]4C[C@@H](C2)C[C@@H](C3)C4)cc1)NO`, the outcome in [3] and in assay [12] was inactive. Further, the inhibition entry in assay [4] was “inactive”. For the same compound, the IC50 against Histone deacetylase 2 [5] is 246 nM; at Histone deacetylase 1 [6], 133 nM; in the assay with MM1.S [1], 7.23 µM; in assay [11], 5.9 nM; at Histone deacetylase, 0.58 µM. For the same compound, the result in the assay with MM1.S [7], in the assay with MM1.S [8], on Histone deacetylase 1 [9] and at Histone deacetylase 2 [13] was Active. Besides, the maximal effect (Emax) at Histone deacetylase 1 [10] was found to be 47%.

`O=C(CCCCCCNC(=O)c1ccc(NC(=O)CCCNC(=O)CC2c3ccccc3-c3ccccc32)cc1)NO` showed an IC50 in the assay on MM1.S [1] of 68.1 µM.

Regarding `O=C(CCCCCCNC(=O)c1ccc(NC(=O)CCCCCNC(=O)CC23C[C@H]4C[C@@H](C2)C[C@@H](C3)C4)cc1)NO`, the IC50 in the assay on MM1.S [1] was 22.8 µM.

As to `O=C(CCCCCCNC(=O)c1ccc(NC(=O)CC2c3ccccc3-c3ccccc32)cc1)NO`, the result in the assay on MM1.S [2] was inactive.

Regarding `O=C(CCCCCCNC(=O)c1ccc(NC(=O)CC23C[C@H]4C[C@@H](C2)C[C@@H](C3)C4)cc1)NO`, the result in assay [3] and in assay [12] was inactive. Further, the inhibition result in assay [4] was “inactive”. Further, the IC50 turned out to be 295 nM on Histone deacetylase 2 [5]; 192 nM on Histone deacetylase 1 [6]; 3.97 µM in the assay with MM1.S [1]; 5.2 nM in [11]; 1.12 µM on Histone deacetylase. Further, the result in the assay on MM1.S [7], in the assay with MM1.S [8], on Histone deacetylase 1 [9] and at Histone deacetylase 2 [13] was Active. On Histone deacetylase 1 [10], this compound came in with an Emax of 47%.

In the case of `O=C(CCCCCCNC(=O)c1ccc(-c2cn(CCCCCCOCCOCCNC(=O)CC34C[C@H]5C[C@@H](C3)C[C@@H](C4)C5)nn2)cc1)NO`, the result (in assay [3]; on Histone deacetylase 1 [14]; in assay [12]) was inactive. In addition, the inhibition result in [4] was “inactive”. Also, the IC50 turned out to be 434 nM on Histone deacetylase 2 [5]; 350 nM at Histone deacetylase 1 [6]; 10.3 µM with MM1.S [1]; 17.7 nM in assay [11]; 1.17 µM at Histone deacetylase. Also, the outcome in the assay on MM1.S [7], in the assay with MM1.S [8] and at Histone deacetylase 1 [9] was Active. Moreover, the Emax on Histone deacetylase 1 [10] was found to be 47%.
